Reference: patent US20250304952A1, “DNA ELEMENT RESPONSIVE TO EXTRACHROMOSOMAL DNA IN CANCER CELLS” (The Board of Trustees of the Leland Stanford Junior …, priority 2021, published 2025)

Key:
Type in all cases: cell-based, human
[1] = test system: covalently-linked MYC copies in COLO320-HSR; assay: Interphase DNA FISH of chromosomal MYC amplicon (HSR), autocorrelation g(r); details: 500 nM, 6 hours
[2] = test system: MYC mRNA in COLO320-DM cells; assay: MYC RNA measured by RT-qPCR in COLO320-DM; details: 500 nM, 6 hours
Experimental: (§1) Cells were then treated for 6 hours with 500 nM JQ1 in DMSO unless otherwise indicated (Sigma-Aldrich SML1524) or an equivalent volume of DMSO.
(§2) RNA was extracted using RNeasy Plus mini Kit (QIAGEN 74136). Purified RNA was quantified by Nanodrop (Thermo Fisher). For RT-qPCR, 50 ng of RNA, 1× Brilliant II qRT-PCR mastermix with 1 μL RT/RNase block (Agilent 600825), and 200 nM forward and reverse primer were used. Each Ct value was measured using Lightcycler 480 (Roche) and each mean dCt was averaged from duplicate qRT-PCR reaction and performed in biological triplicate. Relative MYC RNA level (RT-qPCR primers MYC_exon3_fw and MYC_exon3_rv) was calculated by ddCt method compared to 18S and GAPDH controls (RT-qPCR primers GAPDH_fw, GAPDH_rv, 18S_fw, 18S_rv). P values were calculated using a Student's t-test by comparing the relative fold change of biological triplicates.
Approximately 0.6×10^6 COLO320-DM or COLO-320-HSR cells were plated in 6 well plates and cultured under standard conditions for 24 hours. Cells were then treated for 6 hours with one of the following: 500 nM JQ1 (Sigma-Aldrich SML1524), 500 nM MS645 (Sigma Aldrich SML2549), 1 μM THZ-1 (Selleck chemicals S7549), 20 μM SGC-SCP30 (Selleck chemicals S7256), 10 μM OICR-9429 (Selleck chemicals S7833), 50 μM MI-3 (Selleck chemicals S7619), 2 μM trichostatin A (Selleck chemicals S1045), or DMSO. […]

[3] = test system: COLO320-DM cells and COLO320-HSR cells; assay: JQ1 dose titration: cell viability (CellTiterGlo) and cell proliferation; details: viability 48 hours, proliferation over 72 hours
Experimental: Cells were plated in 96-well plates at 25,000 cells/well in triplicate and incubated either with JQ1 (Sigma-Aldrich SML1524) at the indicated concentrations or an equivalent volume of DMSO for 48 hours. Cell viability was measured using the CellTiterGlo assay kit (Promega G7572) in triplicate with luminescence measured on SpectraMax M5 plate reader with an integration time of 1 second per well. Luminescence was normalized to the DMSO treated controls and p values calculated using a Student's t-test comparing biological triplicates.
Cells were plated in 96-well plates at 10,000 cells/well and incubated either with JQ1 (Sigma-Aldrich SML1524) at the indicated concentrations or an equivalent volume of DMSO. Every 24 hours, cells were harvested and counted on Countess 3 Automated Cell Counter (Thermo Fisher) with Trypan Blue used to assess cell viability. P values were calculated using a Student's t-test comparing biological triplicates.

[4] = test system: ecDNA+ COLO320-DM cells; assay: PVT1 promoter-driven NanoLuc luciferase reporter in COLO320-DM; details: JQ1 500 nM, 6 hours
Text: (§3) We constructed a plasmid containing the 2 kb PVT1 promoter (chr8: 128,804,981-128,806,980, hg19) or the MYC promoter (chr8: 128,745,990-128,748,526, hg19) driving NanoLuc luciferase (PVT1p-nLuc) and a constitutive thymidine kinase (TK) promoter driving Firefly luciferase as an internal control (FIG. 3b). Briefly, pGL4-tk-luc2 (Promega) was digested with KpnI and PciI. A sequence containing multiple cloning sites ([…]), NanoLuc and BGH polyA sequence were inserted in tandem into the vector using Gibson assembly (NEBuilder DNA assembly mix). Next, the PVT1 promoter or the MYC promoter was inserted into the vector via NheI and SalI digestion to generate the final reporter construct. For the negative control, a minimal promoter ([…]) was used in place of the PVT1 promoter. For constructing plasmids with a cis-enhancer, an enhancer (chr8: 128347148-128348310, hg19; positive H3K27ac mark and looping to the PVT1 promoter in HiChIP, overlapping with BRD4 ChIP peak and ATAC-seq peak in COLO320-DM) was inserted directly 5′ to the promoter into the region with multiple cloning sites. […] Luciferase levels were quantified using Nano-Glo Dual reporter luciferase assay (Promega). The reporter level was calculated as the ratio of NanoLuc reading over firefly reading using Tecan M1000. Mean and standard errors were calculated based on three biological replicates with three technical replicate each.

[5] = test system: COLO320-HSR cells; assay: PVT1 promoter-driven NanoLuc luciferase reporter in COLO320-HSR; details: JQ1 500 nM, 6 hours
Text: as §3

[6] = test system: MYC in SNU16; assay: Oncogene RNA measured by RT-qPCR in SNU16 (MYC); details: 500 nM JQ1, 6 hours
Experimental: as §1, §2

[7] = test system: FGFR2 in SNU16; assay: Oncogene RNA measured by RT-qPCR in SNU16 (FGFR2); details: 500 nM JQ1, 6 hours

## Cc1sc2c(c1C)C(c1ccc(Cl)cc1)=N[C@@H](CC(=O)OC(C)(C)C)c1nnc(C)n1-2 [JQ1]
[1]
  spatial distribution of covalently-linked MYC copies: did not alter
[2]
  MYC mRNA level: preferentially lowered
[3]
  cell killing, COLO320-DM versus COLO320-HSR: modest preferential killing of COLO320-DM cells over HSR cells
[4]
  repression of PVT1p-mediated transcription: ~5 fold
[5]
  repression of PVT1p-mediated transcription: ~2 fold
[6]
  ecDNA-derived transcription of MYC: reduced
[7]
  ecDNA-derived transcription of FGFR2: reduced
